The values that follow come from patent US7671061B2, “Methods and compositions for treating pain” (Hydra Biosciences, Inc., priority 2005, dated 2010).

One data set deals with T1, hTRPA1 (Homo sapiens, UniProt O75762, K186N).
T1 construct: expressed in transfected cells; host or cells: HEK293/TREx (Invitrogen), induced with tetracycline
The data set can be described thus: High throughput Ca2+ fluorescence (Fluo4) assay, AITC stimulation. In kind it is cell-based. To be noted: Table 2; read-out: hTRPA1 Fluor IC50. Summed up: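 Tetracycline-induced HEK293/TREx cells loaded with 1 μM Fluo4/AM for 60 min at room temperature. Compound added for 2 min after a 4-frame baseline, then AITC; fluorescence followed ~3 min.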

For a further data set, the target named is T2, hTRPV3 (Homo sapiens, UniProt Q8NET8).
T2 sequence (Q8NET8 1-790): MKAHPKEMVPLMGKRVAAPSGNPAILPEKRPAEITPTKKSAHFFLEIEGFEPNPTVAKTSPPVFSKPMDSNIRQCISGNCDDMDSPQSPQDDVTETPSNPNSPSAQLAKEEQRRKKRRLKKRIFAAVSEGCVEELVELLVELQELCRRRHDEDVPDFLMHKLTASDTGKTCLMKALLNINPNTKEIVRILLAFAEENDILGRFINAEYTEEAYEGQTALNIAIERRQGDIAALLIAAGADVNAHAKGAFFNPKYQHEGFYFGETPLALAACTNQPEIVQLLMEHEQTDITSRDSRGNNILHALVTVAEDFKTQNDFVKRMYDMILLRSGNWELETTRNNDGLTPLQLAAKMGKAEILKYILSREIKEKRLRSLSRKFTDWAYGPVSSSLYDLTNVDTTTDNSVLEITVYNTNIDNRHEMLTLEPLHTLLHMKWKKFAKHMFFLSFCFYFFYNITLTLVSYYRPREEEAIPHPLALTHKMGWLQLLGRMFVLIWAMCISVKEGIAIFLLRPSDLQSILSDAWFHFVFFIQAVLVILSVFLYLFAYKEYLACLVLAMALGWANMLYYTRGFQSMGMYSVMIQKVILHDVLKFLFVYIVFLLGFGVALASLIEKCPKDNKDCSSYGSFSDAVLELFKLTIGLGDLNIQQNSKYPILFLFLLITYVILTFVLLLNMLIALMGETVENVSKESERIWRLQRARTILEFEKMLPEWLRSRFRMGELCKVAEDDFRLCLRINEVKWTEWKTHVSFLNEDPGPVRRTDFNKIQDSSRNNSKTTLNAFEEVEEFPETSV
The data set can be described thus: hTRPV3 patch clamp selectivity. In kind it is cell-based. The following applies: Table 2. (In general: Patch clamp records ionic current or voltage across a cell membrane.)

The next data set addresses hTRPV4 (Homo sapiens, UniProt Q9HBA0). The data set can be described thus: hTRPV4 patch clamp selectivity. In kind it is cell-based. The following applies: Table 2.
Data set [1] is described as follows: Plasma levels / pharmacokinetics in male Sprague-Dawley rat. Format: in vivo. As for the experimental part: Compound 200 plasma levels were determined via HPLC/MS/MS following a single intravenous bolus dose of 0.9 mg/kg, an intraperitoneal dose of 12 mg/kg (suspension), and an oral dose of 12 mg/kg (suspension) in the male Sprague-Dawley rat. […] For intraperitoneal administration, Compound 200 was formulated as a uniform suspension in CMC (carboxymethylcellulose) at a target concentration of 1 mg/mL and administered at a dose volume of 10 mL/kg. For oral administration, Compound 200 was formulated as a uniform suspension in CMC (carboxymethylcellulose), at a target concentration of 1 mg/mL, administered by gavage, at a dose volume of 10 mL/kg, to the conscious, fasted, male Sprague-Dawley rat.

Data set [2] concerns carrageenan-induced inflammation. The data set can be described thus: Carrageenan model of acute inflammatory pain (paw volume). In kind it is in vivo, rat. To be noted: IP, carrageenan injected paw. As for the experimental part:
In this study, the drug administered was either a TRPA1 inhibitor or the non-steroidal anti-inflammatory diclofenac. Following administration of both carrageenan and drug or vehicle control, paw volume was measured and used to assess decreased inflammation.
A general note: In the carrageenan paw model, swelling and tenderness develop within hours.

Data set [3] deals with CFA model of inflammatory pain. The data set can be described thus: CFA model of inflammatory pain. The procedure:
FIG. 4 summarizes data obtained following testing of Compound 200 in the CFA model. Naive rats were pretested for sensitivity to a heat stimulus in the Hargreaves apparatus. The next day, 100 μL of complete Freund's adjuvant (CFA) was injected into the plantar surface of the right hindpaw. Two days later, in the morning, the rats were again pretested. In the afternoon, rats were injected with either vehicle control or with drug (TRPA1 inhibitor 200 or the non-steroidal anti-inflammatory diclofenac). Drugs or vehicle were injected intraperitoneally, and 45 minutes later rats were tested for hyperalgesia by applying the heat source to the CFA injected and uninjected hindpaw and measuring latency to withdrawal.

For the next data set, the target named is hERG (Homo sapiens, UniProt Q12809). The data set can be described thus: in vitro. To be noted: selective for TRPA1 over hERG.
Where [4] appears, read: plasma, male Sprague-Dawley rat, intravenous bolus 0.9 mg/kg.

hTRPV4, sequence (Q9HBA0 whole entry): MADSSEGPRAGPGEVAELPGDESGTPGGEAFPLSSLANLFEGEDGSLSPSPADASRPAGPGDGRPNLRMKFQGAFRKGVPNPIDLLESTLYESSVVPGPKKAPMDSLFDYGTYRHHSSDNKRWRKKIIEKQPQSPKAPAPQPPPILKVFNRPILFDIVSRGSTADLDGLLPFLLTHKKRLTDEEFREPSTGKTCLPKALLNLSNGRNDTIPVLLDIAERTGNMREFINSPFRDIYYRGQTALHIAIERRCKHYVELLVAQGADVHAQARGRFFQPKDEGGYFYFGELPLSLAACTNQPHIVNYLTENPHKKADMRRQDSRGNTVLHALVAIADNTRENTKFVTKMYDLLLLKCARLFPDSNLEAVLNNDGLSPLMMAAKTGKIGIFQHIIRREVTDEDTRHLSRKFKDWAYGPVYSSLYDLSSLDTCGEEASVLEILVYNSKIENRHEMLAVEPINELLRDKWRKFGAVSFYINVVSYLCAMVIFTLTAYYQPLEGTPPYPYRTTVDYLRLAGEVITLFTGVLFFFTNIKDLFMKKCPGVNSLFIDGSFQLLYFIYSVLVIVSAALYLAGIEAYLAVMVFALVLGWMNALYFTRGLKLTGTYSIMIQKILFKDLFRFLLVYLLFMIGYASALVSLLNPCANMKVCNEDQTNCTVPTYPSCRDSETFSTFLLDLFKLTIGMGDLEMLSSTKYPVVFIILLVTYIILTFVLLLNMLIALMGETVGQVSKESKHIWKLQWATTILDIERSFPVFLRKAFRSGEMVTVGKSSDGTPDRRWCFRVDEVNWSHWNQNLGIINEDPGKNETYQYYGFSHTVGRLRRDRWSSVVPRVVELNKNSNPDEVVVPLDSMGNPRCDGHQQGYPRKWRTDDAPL
hERG, sequence (Q12809 whole entry): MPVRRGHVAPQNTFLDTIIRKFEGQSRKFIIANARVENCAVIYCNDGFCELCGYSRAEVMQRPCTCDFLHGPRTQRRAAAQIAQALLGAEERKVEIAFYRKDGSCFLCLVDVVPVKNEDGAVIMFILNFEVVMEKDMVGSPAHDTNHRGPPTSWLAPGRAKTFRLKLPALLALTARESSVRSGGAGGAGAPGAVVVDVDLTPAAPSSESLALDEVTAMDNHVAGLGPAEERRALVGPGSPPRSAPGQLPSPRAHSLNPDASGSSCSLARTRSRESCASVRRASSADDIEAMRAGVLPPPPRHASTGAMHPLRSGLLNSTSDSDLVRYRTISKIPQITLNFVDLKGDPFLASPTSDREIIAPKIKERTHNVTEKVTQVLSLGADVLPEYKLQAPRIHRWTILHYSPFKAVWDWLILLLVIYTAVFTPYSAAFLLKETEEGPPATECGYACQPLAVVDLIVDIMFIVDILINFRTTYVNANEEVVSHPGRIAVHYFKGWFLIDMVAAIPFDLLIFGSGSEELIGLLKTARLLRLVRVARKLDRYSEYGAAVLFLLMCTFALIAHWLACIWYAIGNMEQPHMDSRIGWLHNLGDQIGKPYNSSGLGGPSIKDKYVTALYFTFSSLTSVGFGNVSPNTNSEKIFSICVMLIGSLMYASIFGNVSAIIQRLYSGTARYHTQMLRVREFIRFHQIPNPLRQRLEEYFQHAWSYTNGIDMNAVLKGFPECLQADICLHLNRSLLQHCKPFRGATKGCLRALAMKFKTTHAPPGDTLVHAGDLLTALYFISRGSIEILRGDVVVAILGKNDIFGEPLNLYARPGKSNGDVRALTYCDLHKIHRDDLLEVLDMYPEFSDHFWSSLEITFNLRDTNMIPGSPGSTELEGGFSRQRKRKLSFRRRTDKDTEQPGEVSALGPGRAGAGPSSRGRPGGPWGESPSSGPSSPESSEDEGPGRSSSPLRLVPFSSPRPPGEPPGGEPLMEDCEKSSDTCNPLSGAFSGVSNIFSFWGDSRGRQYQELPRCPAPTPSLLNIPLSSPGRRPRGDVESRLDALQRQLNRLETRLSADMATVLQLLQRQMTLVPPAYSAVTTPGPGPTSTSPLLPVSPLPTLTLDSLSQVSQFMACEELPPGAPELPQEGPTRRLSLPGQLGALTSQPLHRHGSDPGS
T1 sequence (O75762 whole entry K186N): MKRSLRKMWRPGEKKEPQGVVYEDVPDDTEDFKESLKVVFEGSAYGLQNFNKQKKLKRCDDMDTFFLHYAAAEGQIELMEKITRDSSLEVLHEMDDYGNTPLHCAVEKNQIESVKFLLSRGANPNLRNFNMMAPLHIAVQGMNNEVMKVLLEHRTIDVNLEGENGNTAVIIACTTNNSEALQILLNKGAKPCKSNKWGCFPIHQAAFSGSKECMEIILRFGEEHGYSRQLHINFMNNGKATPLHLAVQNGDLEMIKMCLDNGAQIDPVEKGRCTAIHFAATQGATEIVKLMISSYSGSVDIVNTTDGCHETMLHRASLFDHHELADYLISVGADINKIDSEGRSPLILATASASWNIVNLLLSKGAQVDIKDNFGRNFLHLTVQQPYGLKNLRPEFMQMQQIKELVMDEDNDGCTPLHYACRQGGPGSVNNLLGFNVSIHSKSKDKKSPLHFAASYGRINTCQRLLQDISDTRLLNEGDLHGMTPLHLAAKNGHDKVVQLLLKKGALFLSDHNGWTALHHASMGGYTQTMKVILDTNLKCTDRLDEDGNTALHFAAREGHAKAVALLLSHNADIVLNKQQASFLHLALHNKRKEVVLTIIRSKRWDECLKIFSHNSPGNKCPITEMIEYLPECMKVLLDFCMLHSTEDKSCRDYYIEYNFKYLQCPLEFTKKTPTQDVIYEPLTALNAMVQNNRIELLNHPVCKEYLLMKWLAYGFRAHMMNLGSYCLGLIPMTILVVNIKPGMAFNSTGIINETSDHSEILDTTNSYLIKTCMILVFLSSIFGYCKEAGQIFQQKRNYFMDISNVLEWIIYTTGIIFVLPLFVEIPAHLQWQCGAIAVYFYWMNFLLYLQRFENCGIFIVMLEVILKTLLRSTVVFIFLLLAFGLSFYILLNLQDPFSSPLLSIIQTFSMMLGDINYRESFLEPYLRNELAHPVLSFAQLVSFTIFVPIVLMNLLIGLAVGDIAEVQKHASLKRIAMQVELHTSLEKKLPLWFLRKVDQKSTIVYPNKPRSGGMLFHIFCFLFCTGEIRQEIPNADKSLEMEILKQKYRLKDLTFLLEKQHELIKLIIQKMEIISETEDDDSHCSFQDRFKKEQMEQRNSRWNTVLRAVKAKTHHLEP

On to `CC(C)c1ccc(NC(=O)Cn2cnc3c2c(=O)n(C)c(=O)n3C)cc1` [Compound 200, 2-(1,3-dimethyl-2,6-dioxo-1,2,3,6-tetrahydropurin-7-yl)-N-(4-isopropylphenyl)acetamide], for which the IC50 on hTRPA1 was at most 5 µM. Further, the “selective for TRPA1 over TRPV3” value on hTRPV3 is reported as at least 5 fold. Moreover, on hTRPV3 (read-out: hTRPV3 P1 inward IC50), the IC50 was over 10 µM. On hTRPV4, the IC50 is over 10 µM and the “selective for TRPA1 over TRPV4” value is at least 5 fold. In data set [1] (male, Sprague-Dawley, plasma, fasted rat, oral suspension 12 mg/kg), this molecule yielded a bioavailability of about 8%. The molecule also gave a concentration at 45 min in data set [1] (male, Sprague-Dawley, plasma, rat, oral 12 mg/kg, 45 min) of about 355 ng/mL. In data set [1] (setting [4]), this molecule displayed a clearance of 27 mL/min/kg and a half-life of 32 min. For the same molecule, the Vd in data set [1] (plasma, male Sprague-Dawley rat, intravenous bolus 0.9 mg/kg, read-out: volume of distribution) amounted to 1.28 L/kg. In addition, in data set [1] (rat, intraperitoneal 12 mg/kg, 15-60 min), the plasma levels was about 355 ng/mL. The “paw volume (inflammation)” value in data set [2] is reported as “decreased”. In addition, the “efficacy compared with diclofenac” value in data set [3] (IP) was “superior to diclofenac”. Moreover, the thermal hyperalgesia entry in data set [3] (IP, 45 minutes before test, CFA injected paw) is “reduced”. Further, in data set [3] (rat, in vivo, ip), the toxicity entry is listed as “without toxicity”. Besides, the “control paw (uninflamed) sensation” value in data set [3] (uninjected hindpaw) is “not affected”. For the same molecule, the selectivity ratio on hERG is at least 20.

The IC50 is the concentration that gives 50% inhibition. A word on the bioavailability: it is dose-corrected exposure relative to a reference, in per cent. One may read the clearance as a measure of how efficiently the substance is removed, as volume per time. Read a low clearance as inefficient removal. One may read the half-life as the time in which the quantity being followed falls by half. The low end stands for fast loss, the high end for slow loss.
